Test: xn = mol fraction of the nth substance listed
Settings: 101 kPa

CC[N+](C)(CC)CCOC.O=S(=O)([N-]S(=O)(=O)C(F)(F)F)C(F)(F)F + O=C1CCCO1
Settings | electrical conductivity [S/m] | viscosity [mPa·s]
288.15 K, x1 = 0.3003 | 0.818 | 14.42
288.15 K, x1 = 0.4007 | 0.638 | 21.86
288.15 K, x1 = 0.6999 | 0.342 | 87.8
288.15 K, x1 = 0.8001 | 0.271 | 118.2
288.15 K, x1 = 0.9003 | 0.189 | 159.3
288.15 K, x1 = 1 | 0.147 | 225
293.15 K, x1 = 0.2006 | 1.16 | 7.44
293.15 K, x1 = 0.4007 | 0.737 | 18.34
293.15 K, x1 = 0.6002 | 0.508 | 49.4
293.15 K, x1 = 0.6999 | 0.429 | 67.7
293.15 K, x1 = 0.8001 | 0.336 | 90
293.15 K, x1 = 0.9003 | 0.246 | 118.6
298.15 K, x1 = 0.2006 | 1.29 | 6.32
298.15 K, x1 = 0.3003 | 1.03 | 10.43
298.15 K, x1 = 0.4998 | 0.688 | 24.17
298.15 K, x1 = 0.6002 | 0.595 | 37.96
298.15 K, x1 = 0.6999 | 0.504 | 51.5
298.15 K, x1 = 0.8001 | 0.413 | 68.2
298.15 K, x1 = 0.9003 | 0.31 | 88.5
298.15 K, x1 = 1 | 0.24 | 119.2
303.15 K, x1 = 0.1004 | 1.41 | 2.972
303.15 K, x1 = 0.2006 | 1.45 | 5.4
303.15 K, x1 = 0.3003 | 1.16 | 8.87
303.15 K, x1 = 0.4007 | 0.956 | 12.54
303.15 K, x1 = 0.4998 | 0.791 | 19.36
303.15 K, x1 = 0.6002 | 0.688 | 29.46
303.15 K, x1 = 0.8001 | 0.488 | 51.5
303.15 K, x1 = 0.9003 | 0.382 | 67.4
308.15 K, x1 = 0.1004 | 1.52 | 2.401
308.15 K, x1 = 0.2006 | 1.59 | 4.634
308.15 K, x1 = 0.6002 | 0.786 | 23.31
308.15 K, x1 = 0.6999 | 0.693 | 30.64
308.15 K, x1 = 0.8001 | 0.576 | 39.71
308.15 K, x1 = 1 | 0.365 | 67.7
313.15 K, x1 = 0.3003 | 1.43 | 6.47
313.15 K, x1 = 0.4007 | 1.21 | 8.94
313.15 K, x1 = 0.4998 | 1.02 | 12.56
313.15 K, x1 = 0.6002 | 0.898 | 18.36
313.15 K, x1 = 0.6999 | 0.805 | 24.16
313.15 K, x1 = 0.9003 | 0.545 | 39.51
313.15 K, x1 = 1 | 0.44 | 53
318.15 K, x1 = 0.1004 | 1.77 | 1.55
318.15 K, x1 = 0.2006 | 1.92 | 3.357
318.15 K, x1 = 0.3003 | 1.57 | 5.5
318.15 K, x1 = 0.4007 | 1.35 | 7.5
318.15 K, x1 = 0.4998 | 1.15 | 10.47
318.15 K, x1 = 0.6999 | 0.916 | 19.03
318.15 K, x1 = 0.8001 | 0.782 | 24.04
318.15 K, x1 = 0.9003 | 0.645 | 30.79
318.15 K, x1 = 1 | 0.521 | 40.98
323.15 K, x1 = 0.1004 | 1.89 | 1.264
323.15 K, x1 = 0.3003 | 1.72 | 4.76
323.15 K, x1 = 0.6999 | 1.03 | 14.91
323.15 K, x1 = 0.8001 | 0.888 | 18.65
323.15 K, x1 = 0.9003 | 0.739 | 24.72
323.15 K, x1 = 1 | 0.609 | 33.06
328.15 K, x1 = 0.1004 | 2.02 | 1.025
328.15 K, x1 = 0.2006 | 2.22 | 2.567
328.15 K, x1 = 0.3003 | 1.88 | 4.154
328.15 K, x1 = 0.4007 | 1.64 | 5.51
328.15 K, x1 = 0.4998 | 1.44 | 7.25
328.15 K, x1 = 0.6999 | 1.15 | 11.99
328.15 K, x1 = 0.8001 | 1 | 14.94
328.15 K, x1 = 0.9003 | 0.844 | 19.43
333.15 K, x1 = 0.1004 | 2.15 | 0.838
333.15 K, x1 = 0.2006 | 2.38 | 2.237
333.15 K, x1 = 0.3003 | 2.07 | 3.578
333.15 K, x1 = 0.4998 | 1.59 | 6.07
333.15 K, x1 = 0.6002 | 1.42 | 7.65
333.15 K, x1 = 0.6999 | 1.29 | 9.72
333.15 K, x1 = 0.8001 | 1.12 | 11.69
333.15 K, x1 = 0.9003 | 0.956 | 16.5
338.15 K, x1 = 0.1004 | 2.27 | 0.686
338.15 K, x1 = 0.2006 | 2.56 | 1.957
338.15 K, x1 = 0.3003 | 2.24 | 3.117
338.15 K, x1 = 0.4007 | 1.99 | 4.059
338.15 K, x1 = 0.4998 | 1.75 | 5.21
338.15 K, x1 = 0.6002 | 1.56 | 6.3
338.15 K, x1 = 0.6999 | 1.41 | 7.76
338.15 K, x1 = 0.8001 | 1.24 | 9.36
338.15 K, x1 = 0.9003 | 1.07 | 13.36
338.15 K, x1 = 1 | 0.935 | 17.49
343.15 K, x1 = 0.1004 | 2.41 | 0.558
343.15 K, x1 = 0.2006 | 2.74 | 1.718
343.15 K, x1 = 0.4007 | 2.17 | 3.53
343.15 K, x1 = 0.6002 | 1.72 | 4.94
343.15 K, x1 = 0.6999 | 1.54 | 6.16
343.15 K, x1 = 0.8001 | 1.37 | 7.56
343.15 K, x1 = 0.9003 | 1.2 | 10.95
343.15 K, x1 = 1 | 1.05 | 14.91
348.15 K, x1 = 0.1004 | 2.56 | 0.458
348.15 K, x1 = 0.2006 | 2.91 | 1.517
348.15 K, x1 = 0.3003 | 2.63 | 2.346
348.15 K, x1 = 0.4998 | 2.12 | 3.777
348.15 K, x1 = 0.6002 | 1.88 | 4.265
348.15 K, x1 = 0.8001 | 1.5 | 6.13
348.15 K, x1 = 1 | 1.18 | 12.3
353.15 K, x1 = 0.1004 | 2.7 | 0.392
353.15 K, x1 = 0.4007 | 2.55 | 2.74
353.15 K, x1 = 0.4998 | 2.3 | 3.376
353.15 K, x1 = 0.6999 | 1.84 | 4.04
353.15 K, x1 = 0.8001 | 1.64 | 4.81
353.15 K, x1 = 1 | 1.31 | 10.28
